Experimental findings from ChEMBL document CHEMBL5108013, “Crescent-shaped meta-substituted benzene derivatives as a new class of non-nucleoside ribonuclease A inhibitors” (Bioorg Med Chem, 2022) are described below.

Experiment [1] concerns the target T1, Ribonuclease pancreatic (Bos taurus, UniProt P61823).
T1 sequence (P61823 whole entry): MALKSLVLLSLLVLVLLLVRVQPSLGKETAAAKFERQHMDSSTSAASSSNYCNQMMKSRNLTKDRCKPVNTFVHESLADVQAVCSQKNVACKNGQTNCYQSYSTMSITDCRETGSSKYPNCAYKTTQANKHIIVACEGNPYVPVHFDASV
The experiment is described as follows: Inhibition of bovine pancreatic RNase A using 2',3'-cCMP as substrate by Lineweaver-Burk plot analysis.

Experiment [2] deals with T1, Ribonuclease pancreatic. The experiment is described as follows: Competitive inhibition of bovine pancreatic RNase A using 2',3'-cCMP as substrate by Lineweaver-Burk plot analysis.
In experiment [3] the target is T2, Ribonuclease pancreatic (Bos taurus) (UniProt P61823).
T2 sequence (whole entry): T1 sequence (P61823 whole entry)
Description: Inhibition of bovine pancreatic RNase A assessed as increase in RNA band intensity using RNA as substrate incubated for 3 hrs followed by RNA addition for 30 mins by ethidium bromide staining based agarose gel electrophoresis. The note with it: time 210.0 min.

Experiment [4] has as its target T1, Ribonuclease pancreatic. The experiment is described as follows: Inhibition of bovine pancreatic RNase A assessed as reduction in CpG cleavage by spectrophotometric analysis.
The target in experiment [5] is T1, Ribonuclease pancreatic. Description: Non-competitive inhibition of bovine pancreatic RNase A using 2',3'-cCMP as substrate by Lineweaver-Burk plot analysis.

pKi: −log10 of the molar value. Calls of active or inactive are those of the source. The calls are words filed in the database; no cut-off is given here.

For `O=S(=O)(O)CCn1cc(COC[C@@H]2O[C@H](Cn3cc(CS(=O)(=O)O)nn3)[C@@H](O)[C@H]2O)nn1`, on Ribonuclease pancreatic [1], the negative logarithm of the Ki (pKi) was 4.54.

In turn, `O=C(O)c1cc(-n2cc(C(=O)O)nn2)cc(-n2cc(C(=O)O)nn2)c1` gave a negative-log Ki (pKi) at Ribonuclease pancreatic [2] of 4.55. Moreover, the inhibition entry in experiment [3] was “Active”.

At Ribonuclease pancreatic [2], `O=C(O)c1cc(-n2cc(CS(=O)(=O)O)nn2)cc(-n2cc(CS(=O)(=O)O)nn2)c1` showed a negative logarithm of the Ki (pKi) of 4.92. The inhibition entry in experiment [3] is “Active”. On to `O=C(Nc1ccc(Cc2ccc(NC(=O)c3cccc([N+](=O)[O-])c3)c(C(=O)O)c2)cc1C(=O)O)c1cccc([N+](=O)[O-])c1`, for which the pKi at Ribonuclease pancreatic [4] is 4.68.

In turn, `Cc1cn([C@H]2C[C@H](NC(=O)[C@@H](CC(=O)O)NC(=O)[C@H]3O[C@@H](n4cnc5c(N)ncnc54)[C@H](O)[C@@H]3O)[C@@H](CO)O2)c(=O)[nH]c1=O` showed a pKi on Ribonuclease pancreatic [1] of 4.49. Take `O=S(=O)(O)Cc1cn(-c2cccc(-n3cc(CS(=O)(=O)O)nn3)c2)nn1`: the pKi at Ribonuclease pancreatic [2] was 4.49. Also, the inhibition entry in experiment [3] was “Active”.

In turn, `O=C(O)c1cc(-n2cc(CO)nn2)cc(-n2cc(CO)nn2)c1` had a pKi at Ribonuclease pancreatic [2] of 4.36. Moreover, the inhibition entry in experiment [3] is “Active”. The molecule `O=C(O)C1CCN(C(=O)c2cccc(C(=O)N3CCC(C(=O)O)CC3)c2)CC1` gave a pKi on Ribonuclease pancreatic [5] of 3.21. For the same molecule, the inhibition entry in experiment [3] was “Active”. Regarding `Cc1cn([C@H]2C[C@H](NC(=O)[C@@H](CC(=O)O)NC(=O)[C@H]3O[C@@H](n4ccc(=O)[nH]c4=O)[C@H](O)[C@@H]3O)[C@@H](CO)O2)c(=O)[nH]c1=O`, the pKi on Ribonuclease pancreatic [1] was 4.18. In the case of `O=C(O)c1cc(C(=O)N2CCC(C(=O)O)CC2)cc(C(=O)N2CCC(C(=O)O)CC2)c1`, at Ribonuclease pancreatic [2], the pKi was 3.57. Also, in experiment [3], the inhibition entry was “Active”. Molecule `O=C(O)c1cn(-c2cccc(-n3cc(C(=O)O)nn3)c2)nn1` showed a negative-log Ki (pKi) at Ribonuclease pancreatic [2] of 4.22. The inhibition entry in experiment [3] is “Active”. `OCc1cn(-c2cccc(-n3cc(CO)nn3)c2)nn1` gave a negative-log Ki (pKi) on Ribonuclease pancreatic [2] of 4.10. The inhibition result in experiment [3] was “Active”.

The pKi is the Ki on a negative log10 scale, so that one unit is a factor of ten.
